In the supplement of paper PMC9005190:

Tests used:
CRFR2 [1] = target: T1, CRFR2 (UniProt Q13324); assay: pEC50 of agonist-induced pathway activation (ebBRET)
T1 sequence (whole entry): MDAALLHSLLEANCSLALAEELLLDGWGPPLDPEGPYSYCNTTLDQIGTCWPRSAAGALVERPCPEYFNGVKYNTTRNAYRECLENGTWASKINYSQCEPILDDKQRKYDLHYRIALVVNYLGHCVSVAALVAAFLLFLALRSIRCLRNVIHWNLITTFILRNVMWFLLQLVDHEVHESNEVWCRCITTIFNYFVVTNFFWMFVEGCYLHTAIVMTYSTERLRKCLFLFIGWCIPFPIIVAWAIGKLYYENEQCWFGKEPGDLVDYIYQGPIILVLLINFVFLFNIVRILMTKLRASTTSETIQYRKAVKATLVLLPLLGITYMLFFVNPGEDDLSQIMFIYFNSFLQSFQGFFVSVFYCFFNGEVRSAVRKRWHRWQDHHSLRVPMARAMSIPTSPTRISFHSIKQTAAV

CRFR2 [2] = target: T1, CRFR2; assay: Emax (maximal agonist-induced change in ebBRET relative to vehicle) (% of vehicle response (amplitude of change)); higher = larger response (for Gs, larger decrease in membrane ebBRET, i.e. stronger Gs activation)
FP [3] = target: FP (UniProt P43088); assay: pEC50 of agonist-induced pathway activation (ebBRET)
Sequence of FP (P43088 whole entry): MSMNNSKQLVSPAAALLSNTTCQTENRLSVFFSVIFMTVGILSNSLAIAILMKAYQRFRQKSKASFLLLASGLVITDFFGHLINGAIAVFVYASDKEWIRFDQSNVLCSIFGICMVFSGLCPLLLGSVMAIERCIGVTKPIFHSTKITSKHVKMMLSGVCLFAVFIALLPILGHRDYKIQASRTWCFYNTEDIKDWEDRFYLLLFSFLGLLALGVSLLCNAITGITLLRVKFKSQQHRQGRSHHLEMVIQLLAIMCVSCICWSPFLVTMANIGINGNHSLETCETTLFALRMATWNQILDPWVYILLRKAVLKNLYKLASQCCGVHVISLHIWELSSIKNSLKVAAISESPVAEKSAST

FP [4] = target: FP (UniProt P43088); assay: Emax (maximal agonist-induced change in ebBRET relative to vehicle) (% of vehicle response (amplitude of change)); higher = larger response (for Gs, larger decrease in membrane ebBRET, i.e. stronger Gs activation)
GPR183 [5] = target: GPR183 (UniProt P32249); assay: pEC50 of agonist-induced pathway activation (ebBRET)
Sequence of GPR183 (P32249 whole entry): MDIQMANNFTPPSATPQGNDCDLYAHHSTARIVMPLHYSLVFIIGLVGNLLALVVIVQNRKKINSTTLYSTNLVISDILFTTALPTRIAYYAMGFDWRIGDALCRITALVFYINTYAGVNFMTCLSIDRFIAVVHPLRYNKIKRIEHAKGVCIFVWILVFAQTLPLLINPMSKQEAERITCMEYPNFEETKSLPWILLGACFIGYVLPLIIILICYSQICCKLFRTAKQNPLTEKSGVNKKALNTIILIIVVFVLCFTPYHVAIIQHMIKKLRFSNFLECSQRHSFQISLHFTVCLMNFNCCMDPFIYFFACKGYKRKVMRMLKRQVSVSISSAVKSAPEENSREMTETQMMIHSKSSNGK

GPR183 [6] = target: GPR183 (UniProt P32249); assay: Emax (maximal agonist-induced change in ebBRET relative to vehicle) (% of vehicle response (amplitude of change)); higher = larger response (for Gs, larger decrease in membrane ebBRET, i.e. stronger Gs activation)
EP1 = target: T2, EP1 (UniProt P34995); assay: pEC50 of agonist-induced pathway activation (ebBRET)
T2 sequence (whole entry): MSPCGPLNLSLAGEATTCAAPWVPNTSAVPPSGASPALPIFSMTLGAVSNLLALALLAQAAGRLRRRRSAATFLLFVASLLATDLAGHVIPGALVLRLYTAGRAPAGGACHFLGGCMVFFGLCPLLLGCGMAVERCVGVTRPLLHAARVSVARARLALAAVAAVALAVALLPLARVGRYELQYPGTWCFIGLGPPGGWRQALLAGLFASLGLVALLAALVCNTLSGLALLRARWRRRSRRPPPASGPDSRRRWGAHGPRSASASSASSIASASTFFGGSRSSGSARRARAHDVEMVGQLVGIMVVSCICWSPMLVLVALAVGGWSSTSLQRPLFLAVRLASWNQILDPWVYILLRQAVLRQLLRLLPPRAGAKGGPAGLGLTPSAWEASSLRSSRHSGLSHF

S1P1 [7] = target: S1P1 (UniProt P21453); assay: as above
Sequence of S1P1 (P21453 whole entry): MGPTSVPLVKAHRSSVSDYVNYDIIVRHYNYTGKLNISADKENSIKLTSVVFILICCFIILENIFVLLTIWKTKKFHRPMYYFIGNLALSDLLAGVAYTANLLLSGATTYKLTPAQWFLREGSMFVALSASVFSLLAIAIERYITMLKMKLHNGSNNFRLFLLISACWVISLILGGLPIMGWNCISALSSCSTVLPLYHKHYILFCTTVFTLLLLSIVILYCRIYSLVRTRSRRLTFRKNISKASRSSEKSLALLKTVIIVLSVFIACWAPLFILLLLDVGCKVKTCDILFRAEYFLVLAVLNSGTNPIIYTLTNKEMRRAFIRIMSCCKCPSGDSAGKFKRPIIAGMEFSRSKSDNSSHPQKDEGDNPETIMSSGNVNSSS

S1P1 [8] = target: S1P1 (UniProt P21453); assay: Emax (maximal agonist-induced change in ebBRET relative to vehicle) (% of vehicle response (amplitude of change)); higher = larger response (for Gs, larger decrease in membrane ebBRET, i.e. stronger Gs activation)
P2Y2 [9] = target: P2Y2 (UniProt P41231); assay: pEC50 of agonist-induced pathway activation (ebBRET)
Sequence of P2Y2 (P41231 whole entry): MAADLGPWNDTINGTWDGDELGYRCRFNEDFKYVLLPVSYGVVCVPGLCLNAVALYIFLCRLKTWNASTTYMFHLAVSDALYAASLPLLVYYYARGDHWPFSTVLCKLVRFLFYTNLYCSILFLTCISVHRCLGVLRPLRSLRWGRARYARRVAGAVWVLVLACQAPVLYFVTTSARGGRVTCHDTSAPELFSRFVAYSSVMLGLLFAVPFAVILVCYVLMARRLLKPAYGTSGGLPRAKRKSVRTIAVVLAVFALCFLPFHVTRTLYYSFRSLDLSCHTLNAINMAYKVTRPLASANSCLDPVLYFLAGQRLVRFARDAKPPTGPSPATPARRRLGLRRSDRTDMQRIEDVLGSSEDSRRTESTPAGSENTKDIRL

P2Y2 [10] = target: P2Y2 (UniProt P41231); assay: Emax (maximal agonist-induced change in ebBRET relative to vehicle) (% of vehicle response (amplitude of change)); higher = larger response (for Gs, larger decrease in membrane ebBRET, i.e. stronger Gs activation)

CC[C@H](C)[C@H](N)C(=O)N[C@H](C(=O)N[C@@H](CC(C)C)C(=O)N[C@@H](CO)C(=O)N[C@@H](CC(C)C)C(=O)N[C@@H](CC(=O)O)C(=O)N[C@H](C(=O)N1CCC[C@H]1C(=O)N[C@H](C(=O)NCC(=O)N[C@@H](CC(C)C)C(=O)N[C@@H](CC(C)C)C(=O)N[C@@H](CCC(N)=O)C(=O)N[C@H](C(=O)N[C@@H](CC(C)C)C(=O)N[C@@H](CC(C)C)C(=O)N[C@@H](CCC(=O)O)C(=O)N[C@@H](CCC(N)=O)C(=O)N[C@@H](C)C(=O)N[C@@H](CCCNC(=N)N)C(=O)N[C@@H](C)C(=O)N[C@@H](CCCNC(=N)N)C(=O)N[C@@H](C)C(=O)N[C@@H](C)C(=O)N[C@@H](CCCNC(=N)N)C(=O)N[C@@H](CCC(=O)O)C(=O)N[C@@H](CCC(N)=O)C(=O)N[C@@H](C)C(=O)N[C@H](C(=O)N[C@H](C(=O)N[C@@H](CC(N)=O)C(=O)N[C@@H](C)C(=O)N[C@@H](CCCNC(=N)N)C(=O)N[C@H](C(=O)N[C@@H](CC(C)C)C(=O)N[C@@H](C)C(=O)N[C@@H](CCCNC(=N)N)C(=O)N[C@H](C(=O)NCC(=O)N[C@@H](Cc1cnc[nH]1)C(=O)N[C@@H](CS)C(N)=O)C(C)C)[C@@H](C)CC)[C@@H](C)O)[C@@H](C)O)[C@@H](C)CC)[C@@H](C)CC)C(C)C)C(C)C [Urocortin II]
Settings	Emax, CRFR2 [2]	pEC50, CRFR2 [1]
pathway (G protein / arrestin sensor): G15	725	8.77
pathway (G protein / arrestin sensor): Gi1	442	8.2
pathway (G protein / arrestin sensor): Gi2	206	8.28
pathway (G protein / arrestin sensor): GoA	159	8.33
pathway (G protein / arrestin sensor): GoB	263	8.37
pathway (G protein / arrestin sensor): Gs	57.3	10.3
pathway (G protein / arrestin sensor): Gz	72.8	8.2
pathway (G protein / arrestin sensor): βarr1/GRK2	1420	8.08
pathway (G protein / arrestin sensor): βarr2	1090	7.98
pathway (G protein / arrestin sensor): βarr2/GRK2	1440	8.16

CCCCC[C@H](O)/C=C/[C@H]1C(=O)C[C@H](O)[C@@H]1C/C=C\CCCC(=O)O [PGD2]
Settings	Emax, FP [4]	pEC50, FP [3]
pathway (G protein / arrestin sensor): G11	459	8.66
pathway (G protein / arrestin sensor): G12	104	8.38
pathway (G protein / arrestin sensor): G13	183	8.78
pathway (G protein / arrestin sensor): G14	578	8.17
pathway (G protein / arrestin sensor): G15	437	8.88
pathway (G protein / arrestin sensor): GoA	84.8	6.92
pathway (G protein / arrestin sensor): GoB	114	6.99
pathway (G protein / arrestin sensor): Gq	306	8.73
pathway (G protein / arrestin sensor): Gz	122	7.46

C[C@H](CCCC(C)(C)O)[C@H]1CC[C@H]2[C@@H]3[C@H](O)C=C4C[C@@H](O)CC[C@]4(C)[C@H]3CC[C@]12C [7α-25 dihydroxycholesterol]
Settings	Emax, GPR183 [6]	pEC50, GPR183 [5]
pathway (G protein / arrestin sensor): G12	53.4	8.98
pathway (G protein / arrestin sensor): G15	38.1	8.51
pathway (G protein / arrestin sensor): Gi1	134	9.74
pathway (G protein / arrestin sensor): Gi2	144	9.75
pathway (G protein / arrestin sensor): GoA	166	9.16
pathway (G protein / arrestin sensor): GoB	190	9.75
pathway (G protein / arrestin sensor): Gz	123	9.16
pathway (G protein / arrestin sensor): βarr1/GRK2	1120	8.95
pathway (G protein / arrestin sensor): βarr2	502	8.23
pathway (G protein / arrestin sensor): βarr2/GRK2	573	8.8

CCCCC[C@H](O)/C=C/[C@H]1[C@H](O)CC(=O)[C@@H]1C/C=C\CCCC(=O)O [PGE2]
EP1
Settings	pEC50
pathway (G protein / arrestin sensor): G11	8.27
pathway (G protein / arrestin sensor): G12	9.51
pathway (G protein / arrestin sensor): G13	8.04
pathway (G protein / arrestin sensor): G14	7.95
pathway (G protein / arrestin sensor): G15	9.29
pathway (G protein / arrestin sensor): Gi1	6.43
pathway (G protein / arrestin sensor): Gi2	7.37
pathway (G protein / arrestin sensor): GoA	8
pathway (G protein / arrestin sensor): GoB	7.46
pathway (G protein / arrestin sensor): Gq	8.32
pathway (G protein / arrestin sensor): βarr2	7.41

CCCCCCCCCCCCC/C=C/[C@@H](O)[C@@H](N)COP(=O)(O)O [Sphingosine 1-phosphate]
Settings	Emax, S1P1 [8]	pEC50, S1P1 [7]
pathway (G protein / arrestin sensor): G12	92	7.18
pathway (G protein / arrestin sensor): G13	175	6.86
pathway (G protein / arrestin sensor): G15	375	6.21
pathway (G protein / arrestin sensor): Gi1	132	8.15
pathway (G protein / arrestin sensor): Gi2	99.8	7.95
pathway (G protein / arrestin sensor): GoA	68.5	7.75
pathway (G protein / arrestin sensor): GoB	59.2	8.16
pathway (G protein / arrestin sensor): βarr1/GRK2	477	7.27
pathway (G protein / arrestin sensor): βarr2	227	6.83
pathway (G protein / arrestin sensor): βarr2/GRK2	557	7.46

O=c1ccn([C@@H]2O[C@H](COP(=O)(O)OP(=O)(O)OP(=O)(O)O)[C@@H](O)[C@H]2O)c(=O)[nH]1 [UTP]
Settings	Emax, P2Y2 [10]	pEC50, P2Y2 [9]
pathway (G protein / arrestin sensor): G11	26.1	6.43
pathway (G protein / arrestin sensor): G14	26.7	6.29
pathway (G protein / arrestin sensor): G15	198	6.08
pathway (G protein / arrestin sensor): Gi1	59.2	6.29
pathway (G protein / arrestin sensor): Gi2	25.9	6.54
pathway (G protein / arrestin sensor): GoA	85.7	5.94
pathway (G protein / arrestin sensor): GoB	54.5	6.37
pathway (G protein / arrestin sensor): Gq	29.2	6.4
pathway (G protein / arrestin sensor): Gz	91.8	6.04
pathway (G protein / arrestin sensor): βarr1/GRK2	185	5.24
pathway (G protein / arrestin sensor): βarr2	346	4.99
pathway (G protein / arrestin sensor): βarr2/GRK2	94.7	5.36
